Measurements as given in the NIST ThermoML archive (doi:10.1016/j.jct.2015.05.024).

Experiment: xn = mol fraction of the nth substance listed
Conditions: 100 kPa, Liquid; for mass density: Vibrating tube method; for speed of sound: Frequency=5 MHz, Pulse-echo method

OCCOCCOCCO [triethylene glycol] + O
Conditions	mass density [kg/m3]	speed of sound [m/s]
303.15 K, x1 = 0.04979	1041.3	–
303.15 K, x1 = 0.06996	1054	–
303.15 K, x1 = 0.09424	1066.08	–
303.15 K, x1 = 0.1481	1084.03	–
303.15 K, x1 = 0.2006	1094.18	–
303.15 K, x1 = 0.2502	1100.12	–
303.15 K, x1 = 0.2988	1103.95	–
303.15 K, x1 = 0.3492	1106.7	–
303.15 K, x1 = 0.3925	1108.43	–
303.15 K, x1 = 0.4502	1110.16	–
303.15 K, x1 = 0.4877	1111.03	–
303.15 K, x1 = 0.5004	1111.29	–
303.15 K, x1 = 0.5739	1112.54	–
303.15 K, x1 = 0.58	1112.63	–
303.15 K, x1 = 0.6465	1113.45	–
303.15 K, x1 = 0.651	1113.5	–
303.15 K, x1 = 0.7008	1113.98	–
303.15 K, x1 = 0.7471	1114.36	–
303.15 K, x1 = 0.7677	1114.51	–
303.15 K, x1 = 0.82	1114.86	–
303.15 K, x1 = 0.8623	1115.11	–
303.15 K, x1 = 0.8792	1115.2	–
303.15 K, x1 = 0.8975	1115.3	–
303.15 K, x1 = 0.9203	1115.41	–
303.15 K, x1 = 0.9514	1115.57	–
303.15 K, x1 = 0.9692	1115.66	–
303.15 K, x1 = 1	1115.81	–
308.15 K, x1 = 0.000704	–	1522.8
308.15 K, x1 = 0.002176	–	1528.1
308.15 K, x1 = 0.005721	–	1540.6
308.15 K, x1 = 0.01035	–	1556
308.15 K, x1 = 0.0107	1005.7	–
308.15 K, x1 = 0.01513	–	1570.7
308.15 K, x1 = 0.02047	1015.27	–
308.15 K, x1 = 0.02389	–	1595
308.15 K, x1 = 0.03177	–	1614.1
308.15 K, x1 = 0.03972	1031.49	–
308.15 K, x1 = 0.0428	–	1637
308.15 K, x1 = 0.04979	1038.74	–
308.15 K, x1 = 0.05056	–	1650.6
308.15 K, x1 = 0.05793	–	1661.8
308.15 K, x1 = 0.06447	–	1670.6
308.15 K, x1 = 0.06996	1051.15	–
308.15 K, x1 = 0.07343	–	1680.8
308.15 K, x1 = 0.08342	–	1690
308.15 K, x1 = 0.09076	–	1695.5
308.15 K, x1 = 0.09424	1062.94	–
308.15 K, x1 = 0.1028	–	1702.6
308.15 K, x1 = 0.1137	–	1707.1
308.15 K, x1 = 0.1189	–	1708.7
308.15 K, x1 = 0.1229	–	1709.7
308.15 K, x1 = 0.1231	–	1709.7
308.15 K, x1 = 0.1269	–	1710.5
308.15 K, x1 = 0.1308	–	1711.1
308.15 K, x1 = 0.1403	–	1712.1
308.15 K, x1 = 0.1427	–	1712.2
308.15 K, x1 = 0.1481	1080.5	1712.3
308.15 K, x1 = 0.1594	–	1711.9
308.15 K, x1 = 0.1659	–	1711.3
308.15 K, x1 = 0.1738	–	1710.3
308.15 K, x1 = 0.1858	–	1708.3
308.15 K, x1 = 0.1969	–	1706
308.15 K, x1 = 0.2006	1090.47	–
308.15 K, x1 = 0.2172	–	1701
308.15 K, x1 = 0.2467	–	1692.8
308.15 K, x1 = 0.2502	1096.32	–
308.15 K, x1 = 0.2825	–	1682.6
308.15 K, x1 = 0.2988	1100.12	–
308.15 K, x1 = 0.3259	–	1670.8
308.15 K, x1 = 0.3492	1102.85	–
308.15 K, x1 = 0.3691	–	1660.3
308.15 K, x1 = 0.3925	1104.57	–
308.15 K, x1 = 0.4352	–	1646.2
308.15 K, x1 = 0.4502	1106.3	–
308.15 K, x1 = 0.5067	–	1632.7
308.15 K, x1 = 0.6111	–	1615.9
308.15 K, x1 = 0.7783	–	1598.5
308.15 K, x1 = 0.8912	–	1591.9
308.15 K, x1 = 0.9608	–	1587.5
308.15 K, x1 = 1	–	1584.6
